From article PMC12756401, “Effect of itraconazole on pharmacokinetics of ZX-7101A tablets in healthy Chinese subjects” (Frontiers in Pharmacology, 2025) come the findings set out here.

For this data set the following is noted: in vivo. On the procedure: This single center, open label, fixed sequence trial consisted of two stages. Stage 1 was single oral administration of ZX-7101A tablets to the subjects under fasting condition, while Stage 2 included coadministration of ZX-7101A tablets and itraconazole capsules. Participants took ZX-7101A tablets 40 mg orally under fasting condition in the morning on D1 of Stage 1 and D31 of Stage 2. In drug-drug interaction clinical trials, the selected dose of the precipitant drug should maximize the potential to identify drug-drug interaction in the context of safety (i.e., achieving an exposure level close to the highest clinically recommended dose). […] The PK of itraconazole is influenced by its formulation, food intake, and gastrointestinal pH ([Liu et al., 2016]; [Allen et al., 2015]). […] Therefore, in this study, itraconazole was administered orally after meals to achieve maximum clinical exposure. Therefore, from D26 to D50 of Stage 2, the participants took 200 mg itraconazole capsules once daily for 25 consecutive days within 30 min after eating a standard breakfast (coadministration with ZX-7101A at the same time in the morning of D31 under fasting condition). […]
The safety of subjects was assessed in terms of adverse events (AEs) and serious adverse events (SAEs) after administration based on the findings of physical examination, vital signs, ECG, and laboratory tests.

On to `CCC(C)n1ncn(-c2ccc(N3CCN(c4ccc(OCC5COC(Cn6cncn6)(c6ccc(Cl)cc6Cl)O5)cc4)CC3)cc2)c1=O` (centres unmarked) [Itraconazole, itraconazole], for which the “drug-related TEAE” value is “None of the subjects developed any drug-related TEAE”. For the same compound, under “human”, the “TEAE: COVID-19” value is 0 n (%).
